Measurements: PMC12010937, “Evaluation of FXR Activity in Pollutants Identified in Sewage Sludge and Subsequent in Vitro and in Vivo Characterization of Metabolic Effects of Triphenyl Phosphate” (Environmental Health Perspectives, 2025)
Several values for one entry are separate records, joined by “and”; a condition that tells them apart may be missing. Equal entries are not always repeated.

Tests used:
[1] = system: C57BL/6N mice; experiment: Hepatic total bile acids (TBA colorimetric assay kit); assay type: in vivo; conditions: for Hepatic TBA: individual mice
Method: (§1) Male C57BL/6N mice (8 wk of age) were purchased from Beijing Vital River Laboratory Inc. and acclimated to the environment for 2 wk before they were used for experiments. The environment was maintained at 22°C, in a 12-h light/dark cycle with 50%–60% relative humidity and fed standard chow diets. Because the male mice are more sensitive to metabolic disease than female mice and the estrous cycle of female mice may induce variability to the metabolic phenotypes,[50] only male mice were used in this study. Animals were randomly assigned to control or TPHP treatment groups (five mice per group). Mice were exposed to corn oil (control) purchased from Sigma-Aldrich (C8267) or TPHP (dissolved in corn oil) at 10mg/kg or 50mg/kg body weight (BW) by daily oral gavage for 35 d. The administered volume was 5mL/kg BW. The TPHP corn oil solutions for administration were prepared by dissolving the TPHP in corn oil, and the solutions were stored at −20°C and freshly prepared each week. BW was measured every other day during the dosing period. At the end of experiments, the mice were anesthetized with isoflurane, then blood was collected from the retro-orbital sinus via orbital puncture, and then the mice were euthanized by cervical dislocation. The liver was isolated, weighted, and divided into three fractions: one fraction was fixed with 4% neutral-buffered formalin for Oil Red staining; another fraction was frozen in liquid nitrogen and stored at −80°C for the BA targeted analysis, lipidomic analysis, and qPCR analysis; the remaining fraction was embedded with 3% carboxymethylcellulose (CMC) for MSI analysis. The ileum was also isolated, weighted, and stored at −80°C for the BA targeted analysis and qRT-PCR analysis. […]
(§2) The TG level in the liver was determined using a triglyceride enzymatic assay kit (Applygen). […] The total BA level in the liver was determined using a Total Bile Acid (TBA) Colorimetric Assay Kit (Elabscience). […] Both the TG and TBA results were normalized by the protein concentration determined by bicinchoninic acid (BCA) method using a BCA kit (Applygen).

[2] = system: C57BL/6N mice; experiment: Hepatic triglyceride (TG enzymatic assay kit); assay type: in vivo; conditions: for Hepatic TG: individual mice
Method: as §1, §2

[3] = system: FXR, PXR and PPARγ target genes in liver; experiment: qPCR of genes in mouse liver; assay type: in vivo, C57BL/6N mice
Method: Male C57BL/6N mice (8 wk of age) were purchased from Beijing Vital River Laboratory Inc. and acclimated to the environment for 2 wk before they were used for experiments. The environment was maintained at 22°C, in a 12-h light/dark cycle with 50%–60% relative humidity and fed standard chow diets. Because the male mice are more sensitive to metabolic disease than female mice and the estrous cycle of female mice may induce variability to the metabolic phenotypes,[50] only male mice were used in this study. Animals were randomly assigned to control or TPHP treatment groups (five mice per group). Mice were exposed to corn oil (control) purchased from Sigma-Aldrich (C8267) or TPHP (dissolved in corn oil) at 10mg/kg or 50mg/kg body weight (BW) by daily oral gavage for 35 d. The administered volume was 5mL/kg BW. The TPHP corn oil solutions for administration were prepared by dissolving the TPHP in corn oil, and the solutions were stored at −20°C and freshly prepared each week. BW was measured every other day during the dosing period. At the end of experiments, the mice were anesthetized with isoflurane, then blood was collected from the retro-orbital sinus via orbital puncture, and then the mice were euthanized by cervical dislocation. The liver was isolated, weighted, and divided into three fractions: one fraction was fixed with 4% neutral-buffered formalin for Oil Red staining; another fraction was frozen in liquid nitrogen and stored at −80°C for the BA targeted analysis, lipidomic analysis, and qPCR analysis; the remaining fraction was embedded with 3% carboxymethylcellulose (CMC) for MSI analysis. The ileum was also isolated, weighted, and stored at −80°C for the BA targeted analysis and qRT-PCR analysis. Cecal contents were collected from the cecum of mice for the 16S rRNA gene sequencing analysis. Animal study protocols were approved by the Animal Care and Use Committee of Peking University (approval number: Urban-WanY-1).
Total RNA was extracted from cells or mice tissues (liver and ileum) using the Total RNA kit (Tiangen Biotech), and concentration and quality of the RNA were determined using a SMA4000 Nanodrop spectrophotometer (Merinton). Then, the RNA was reverse transcribed into cDNA by HiScript III RT SuperMix for qPCR (Vazyme). In addition, qPCR was performed in the Mx3005P real-time PCR system (Agilent Technologies) with the ChamQ SYBR qPCR Master Mix Kit (Vazyme). Reactions were carried out for 5 min at 95°C, followed by 40 cycles of two-step PCR for 10 s at 95°C and 30 s at 60°C. The relative RNA expression levels of the target genes were normalized to GAPDH using the 2^−ΔΔCt method.

[4] = system: C57BL/6N mice; experiment: Oil Red O lipid staining of liver sections; assay type: in vivo; conditions: TPHP exposure groups
Method: as §1, with “dislocation.” for “dislocation. The liver was isolated, weighted, and divided into three fractions: one fraction was fixed with 4% neutral-buffered formalin for Oil Red staining; another fraction was frozen in liquid nitrogen and stored at −80°C for the BA targeted analysis, lipidomic analysis, and qPCR analysis; the remaining fraction was embedded with 3% carboxymethylcellulose (CMC) for MSI analysis. The ileum was also isolated, weighted, and stored at −80°C for the BA targeted analysis and qRT-PCR analysis.”

[5] = system: PXR; conditions: in vitro assays and in silico molecular docking; cited from earlier work
[6] = TPHP-H: 50 mg/kg daily oral gavage 35 d
[7] = TPHP-L: 10 mg/kg daily oral gavage 35 d

O=P(Oc1ccccc1)(Oc1ccccc1)Oc1ccccc1 [TPHP, triphenyl phosphate]
Increase of total BA concentration in the liver relative to the control group ([1]; TPHP-H group, 35 d of exposure): 2 fold | Hepatic TBA [1, 6]: 2.67 µmol/g and 2.92 µmol/g and 2.08 µmol/g | Hepatic TBA [1, 7]: 1.89 µmol/g and 1.55 µmol/g and 1.58 µmol/g | Hepatic TG concentrations vs control group (in words) ([2]; TPHP exposure groups): significantly higher | Hepatic TG [2, 6]: 731.21 μmol/g prot and 811.79 μmol/g prot and 765.68 μmol/g prot | Hepatic TG [2, 7]: 784.11 μmol/g prot and 752.79 μmol/g prot and 725.51 μmol/g prot | Relative mRNA expression of Acc1 in liver ([3]; TPHP-H: 50 mg/kg, 35 d): 1.30 fold changes and 1.85 fold changes and 1.75 fold changes | Relative mRNA expression of Acly in liver ([3]; TPHP-H: 50 mg/kg, 35 d): 1.31 fold changes and 1.49 fold changes and 1.68 fold changes | Relative mRNA expression of Bsep in liver ([3]; TPHP-H: 50 mg/kg, 35 d): 0.59 fold changes and 0.34 fold changes and 0.54 fold changes | Relative mRNA expression of Cd36 in liver ([3]; TPHP-H: 50 mg/kg, 35 d): 0.97 fold changes and 1.09 fold changes and 0.65 fold changes | Relative mRNA expression of Cpt1a in liver ([3]; TPHP-H: 50 mg/kg, 35 d): 0.75 fold changes and 0.89 fold changes and 1.31 fold changes | Relative mRNA expression of Cyp2b10 in liver ([3]; TPHP-H: 50 mg/kg, 35 d): 1.32 fold changes and 0.97 fold changes and 0.68 fold changes | Relative mRNA expression of Cyp3a11 in liver ([3]; TPHP-H: 50 mg/kg, 35 d): 0.93 fold changes and 0.74 fold changes and 0.82 fold changes | Relative mRNA expression of Cyp7a1 in liver ([3]; TPHP-H: 50 mg/kg, 35 d): 2.89 fold changes and 2.77 fold changes and 3.66 fold changes | Relative mRNA expression of Cyp7b1 in liver ([3]; TPHP-H: 50 mg/kg, 35 d): 1.54 fold changes and 0.80 fold changes and 0.81 fold changes | Relative mRNA expression of Cyp8b1 in liver ([3]; TPHP-H: 50 mg/kg, 35 d): 1.26 fold changes and 1.33 fold changes and 0.86 fold changes | Relative mRNA expression of Cyp27a1 in liver ([3]; TPHP-H: 50 mg/kg, 35 d): 0.93 fold changes and 1.23 fold changes and 1.03 fold changes | Relative mRNA expression of Dgat2 in liver ([3]; TPHP-H: 50 mg/kg, 35 d): 1.67 fold changes and 1.99 fold changes and 1.63 fold changes | Relative mRNA expression of Fae in liver ([3]; TPHP-H: 50 mg/kg, 35 d): 1.30 fold changes and 0.87 fold changes and 0.66 fold changes | Relative mRNA expression of Hmgcs2 in liver ([3]; TPHP-H: 50 mg/kg, 35 d): 0.85 fold changes and 0.69 fold changes and 1.21 fold changes | Relative mRNA expression of Mdr3 in liver ([3]; TPHP-H: 50 mg/kg, 35 d): 0.80 fold changes and 0.96 fold changes and 0.74 fold changes | Relative mRNA expression of Mrp2 in liver ([3]; TPHP-H: 50 mg/kg, 35 d): 0.83 fold changes and 0.55 fold changes and 0.76 fold changes | Relative mRNA expression of Mrp3 in liver ([3]; TPHP-H: 50 mg/kg, 35 d): 1.11 fold changes and 0.88 fold changes and 0.87 fold changes | Relative mRNA expression of Mrp4 in liver ([3]; TPHP-H: 50 mg/kg, 35 d): 0.96 fold changes and 0.80 fold changes and 0.67 fold changes | Relative mRNA expression of Ntcp in liver ([3]; TPHP-H: 50 mg/kg, 35 d): 1.19 fold changes and 1.58 fold changes and 1.51 fold changes | Relative mRNA expression of Scd1 in liver ([3]; TPHP-H: 50 mg/kg, 35 d): 0.43 fold changes and 0.64 fold changes and 0.58 fold changes | Relative mRNA expression of Srebp1c in liver ([3]; TPHP-H: 50 mg/kg, 35 d): 2.82 fold changes and 2.12 fold changes and 2.38 fold changes | Relative mRNA expression of Acc1 in liver ([3]; TPHP-L: 10 mg/kg, 35 d): 1.60 fold changes and 1.11 fold changes and 0.88 fold changes | Relative mRNA expression of Acly in liver ([3]; TPHP-L: 10 mg/kg, 35 d): 1.63 fold changes and 1.57 fold changes and 1.51 fold changes | Relative mRNA expression of Bsep in liver ([3]; TPHP-L: 10 mg/kg, 35 d): 0.72 fold changes and 0.48 fold changes and 0.41 fold changes | Relative mRNA expression of Cd36 in liver ([3]; TPHP-L: 10 mg/kg, 35 d): 1.18 fold changes and 0.78 fold changes and 1.04 fold changes | Relative mRNA expression of Cpt1a in liver ([3]; TPHP-L: 10 mg/kg, 35 d): 0.92 fold changes and 1.04 fold changes and 0.99 fold changes | Relative mRNA expression of Cyp3a11 in liver ([3]; TPHP-L: 10 mg/kg, 35 d): 1.21 fold changes and 0.78 fold changes and 0.67 fold changes | Relative mRNA expression of Cyp7b1 in liver ([3]; TPHP-L: 10 mg/kg, 35 d): 0.65 fold changes and 1.07 fold changes and 0.98 fold changes | Relative mRNA expression of Cyp8b1 in liver ([3]; TPHP-L: 10 mg/kg, 35 d): 1.44 fold changes and 1.13 fold changes and 0.80 fold changes | Relative mRNA expression of Cyp27a1 in liver ([3]; TPHP-L: 10 mg/kg, 35 d): 1.02 fold changes and 1.04 fold changes and 0.92 fold changes | Relative mRNA expression of Dgat2 in liver ([3]; TPHP-L: 10 mg/kg, 35 d): 1.22 fold changes and 1.92 fold changes and 1.34 fold changes | Relative mRNA expression of Fae in liver ([3]; TPHP-L: 10 mg/kg, 35 d): 1.41 fold changes and 0.87 fold changes and 0.80 fold changes | Relative mRNA expression of Hmgcs2 in liver ([3]; TPHP-L: 10 mg/kg, 35 d): 0.83 fold changes and 1.02 fold changes and 0.93 fold changes | Relative mRNA expression of Mdr3 in liver ([3]; TPHP-L: 10 mg/kg, 35 d): 1.09 fold changes and 0.85 fold changes and 0.67 fold changes | Relative mRNA expression of Mrp2 in liver ([3]; TPHP-L: 10 mg/kg, 35 d): 0.71 fold changes and 1.09 fold changes and 0.57 fold changes | Relative mRNA expression of Mrp3 in liver ([3]; TPHP-L: 10 mg/kg, 35 d): 0.90 fold changes and 0.72 fold changes and 0.89 fold changes | Relative mRNA expression of Mrp4 in liver ([3]; TPHP-L: 10 mg/kg, 35 d): 0.86 fold changes and 0.84 fold changes and 0.91 fold changes | Relative mRNA expression of Ntcp in liver ([3]; TPHP-L: 10 mg/kg, 35 d): 1.52 fold changes and 1.66 fold changes and 1.26 fold changes | Relative mRNA expression of Scd1 in liver ([3]; TPHP-L: 10 mg/kg, 35 d): 0.40 fold changes and 0.59 fold changes and 0.35 fold changes | Relative mRNA expression of Srebp1c in liver ([3]; TPHP-L: 10 mg/kg, 35 d): 2.35 fold changes and 1.89 fold changes and 2.01 fold changes | Expression of FXR-regulated lipogenesis genes (Srebp1c, Dgat2, Acly, Acc1) in liver (in words) ([3]; TPHP-exposed mice): up-regulated | Expression of Scd1 in the liver (in words) ([3]; TPHP-exposure groups): significantly lower | Expression of PXR and PPARγ target genes in the liver, except Scd1 (in words) ([3]; after TPHP exposure): not significantly different | Expression of Cyp7a1 in liver, higher than in control group ([3]; both TPHP-L and TPHP-H groups): approximately 2 folds | Oil Red O staining intensity of liver sections vs control (in words) [4]: higher | PXR activity reported (in words) [5]: agonists
